Test [1] addresses T1, β1 (caspase-like activity) of 20S proteasome (Homo sapiens, UniProt P28072).
T1 construct: purchased Bioscience (20S Proteasome StressXpress Assay Kit Gold)
Description: 20S proteasome inhibitory activity, AMC fluorescent substrate Z-LLE-AMC. In kind it is biochemical.

For test [2], the target named is β2 (trypsin-like activity) of 20S proteasome (Homo sapiens, UniProt Q99436). Description: 20S proteasome inhibitory activity, AMC fluorescent substrate Bz-VGR-AMC.
Test [3] concerns the target β5 (chymotrypsin-like activity) of 20S proteasome (Homo sapiens, UniProt P28074). Briefly: 20S proteasome inhibitory activity, AMC fluorescent substrate Suc-LLVY-AMC.
The next test deals with T2, E. coli DHFR (Escherichia coli, UniProt P0ABQ4).
T2 construct: expressed in transfected cells; host or cells: HeLa cells, transient transfection with pMIR DsRed-IRES-ecDHFR-HA-GFP
Description: Thermal shift assay of affinity with forcedly expressed target protein in HeLa cells. The class given is binding. To be noted: bortezomib alone.

Non-standard residues stand in square brackets, D forms with d. Residues, ends and D or L forms follow the SMILES beside them. Nle = CCCC[C@H](N)C(=O)O

What is called IC50 is the point on the concentration scale where inhibition reaches its midpoint.

Regarding `CCCC[C@@H](C=O)NC(=O)[C@H](CC(C)C)NC(=O)[C@H](CC(C)C)NC(C)=O` [ALLN] (Ac-Leu-Leu-[Nle]-aldehyde), the half-inhibitory concentration (IC50) in test [1] (20S proteasome 0.1 μg, 30 min preincubation, substrate 100 μM, 1 hour) came out at 12.4 µM; in test [2], 5.25 µM; in test [3], 1.15 µM. Also, the “inhibitory activity against β1” value in test [1] (FIGS. 4A, 7A, compared with the original proteasome inhibitor alone) was “not significantly inhibited”.

In the case of `CC(C)C[C@H](NC(=O)[C@H](Cc1ccccc1)NC(=O)c1cnccn1)B(O)O` [Bortezomib], the “interaction with E. coli DHFR” value on E. coli DHFR is “did not interact with E. coli DHFR”.

With `CC(C)C[C@H](NC(=O)CNC(=O)c1cc(Cl)ccc1Cl)B(O)O` [MLN2238], in test [2], the 50% inhibitory concentration (IC50) was 6.4 µM.

The values are drawn from patent US10976306B2, “Protein degradation inducing tag and usage thereof” (Tokyo University of Science Foundation, priority 2015, dated 2021).
